Measured values from PMC4844368 (The Biochemical journal, 2015).
Where a chain is given by its changes, count along the chain named.

Tests used:
TRB2 [1] = biological target: T1, TRB2 (Homo sapiens, UniProt Q92519, K90M); assay: intrinsic fluorescence thermal shift; type: binding; conditions: 1 mM ATP, 2 mM EDTA, TRB buffer pH 9.0
T1 sequence (Q92519 1-343 K90M): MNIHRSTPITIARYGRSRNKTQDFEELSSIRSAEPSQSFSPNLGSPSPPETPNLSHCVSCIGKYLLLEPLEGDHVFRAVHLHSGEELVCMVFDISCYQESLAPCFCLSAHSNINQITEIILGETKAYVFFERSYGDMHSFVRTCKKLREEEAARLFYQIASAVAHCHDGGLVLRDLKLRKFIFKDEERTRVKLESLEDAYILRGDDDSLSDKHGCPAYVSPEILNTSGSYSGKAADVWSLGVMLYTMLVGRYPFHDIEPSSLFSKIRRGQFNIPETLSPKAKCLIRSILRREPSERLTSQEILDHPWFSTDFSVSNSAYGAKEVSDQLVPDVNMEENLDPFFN

TRB2 [2] = biological target: T2, TRB2 (Homo sapiens, UniProt Q92519, K90A); assay: intrinsic fluorescence thermal shift; type: binding; conditions: 1 mM ATP, 2 mM EDTA, TRB buffer pH 9.0
T2 sequence (Q92519 1-343 K90A): T1 sequence (Q92519 1-343 K90M) with M90A

TRB2 [3] = biological target: T3, TRB2 (Homo sapiens, UniProt Q92519); assay: intrinsic fluorescence thermal shift; type: binding; conditions: 1 mM ATP, 2 mM EDTA, TRB buffer pH 9.0
T3 sequence (Q92519 1-343): T1 sequence (Q92519 1-343 K90M) with M90K

CASK = biological target: T4, CASK (Homo sapiens, UniProt O14936); assay: Sypro Orange thermal shift; type: binding; conditions: ATP dose series, 2 mM EDTA, TRB buffer pH 9.0
T4 sequence (O14936 1-337): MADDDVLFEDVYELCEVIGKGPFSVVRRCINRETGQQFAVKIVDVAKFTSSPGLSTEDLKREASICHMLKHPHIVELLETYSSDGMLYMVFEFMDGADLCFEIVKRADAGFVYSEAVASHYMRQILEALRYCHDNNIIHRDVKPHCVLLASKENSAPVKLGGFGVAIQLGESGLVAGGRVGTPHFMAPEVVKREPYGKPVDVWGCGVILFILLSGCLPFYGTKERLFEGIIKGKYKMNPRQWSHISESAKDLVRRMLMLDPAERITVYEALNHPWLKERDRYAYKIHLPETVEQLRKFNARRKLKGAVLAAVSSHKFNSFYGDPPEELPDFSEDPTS

Aurora A = biological target: T5, Aurora A (Homo sapiens, UniProt O14965); assay: intrinsic fluorescence thermal shift; type: binding; conditions: 1 mM ATP, 10 mM Mg2+, no EDTA, TRB buffer pH 9.0
T5 sequence (O14965 1-403): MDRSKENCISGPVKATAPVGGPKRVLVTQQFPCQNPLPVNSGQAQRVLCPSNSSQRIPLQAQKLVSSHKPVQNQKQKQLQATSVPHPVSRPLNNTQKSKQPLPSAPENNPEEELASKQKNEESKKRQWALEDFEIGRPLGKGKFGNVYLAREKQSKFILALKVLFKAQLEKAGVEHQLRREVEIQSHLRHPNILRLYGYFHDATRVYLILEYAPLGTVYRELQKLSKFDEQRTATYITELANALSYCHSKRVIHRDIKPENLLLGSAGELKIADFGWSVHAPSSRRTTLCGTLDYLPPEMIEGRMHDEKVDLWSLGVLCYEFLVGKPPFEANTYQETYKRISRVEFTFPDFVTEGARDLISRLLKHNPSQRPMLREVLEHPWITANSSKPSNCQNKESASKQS

purified protein = substrate: Nc1ncnc2c1ncn2[C@@H]1O[C@H](COP(=O)(O)OP(=O)(O)OP(=O)(O)O)[C@@H](O)[C@H]1O; assay: purified protein; type: biochemical, Homo sapiens; conditions: co-substrate histone H3; Mg2+-ATP

## Nc1ncnc2c1ncn2[C@@H]1O[C@H](COP(=O)(O)OP(=O)(O)OP(=O)(O)O)[C@@H](O)[C@H]1O [ATP]
TRB2 [1]
  ΔTm: 1.59 °C
TRB2 [2]
  ΔTm: 0.23 °C
TRB2 [3]
  ΔTm: 3.64 °C
CASK
  ΔTm: both CASK and TRB2 exhibited demonstrable dose-dependent binding to ATP
Aurora A
  ΔTm: 2.99 °C

B1: Aurora A (Homo sapiens) (protein)
chain: T5 sequence (O14965 1-403)
Purified protein
  Km: 14.3 ± 2.6 µM
